Experiments:
Leishmania donovani [1] = experiment: Antileishmanial activity against axenic amastigote stage of Leishmania donovani MHOM/SD/1962/1S-Cl2d assessed as inhibition of parasite growth at 50 uM after 24 hrs by Alamar blue viability assay; assay type: functional; details: read-out: GI
Leishmania donovani [2] = experiment: Antileishmanial activity against axenic amastigote stage of Leishmania donovani MHOM/SD/1962/1S-Cl2d assessed as inhibition of parasite growth at 15 uM after 24 hrs by Alamar blue viability assay; assay type: functional; details: read-out: GI
[3] = Selectivity index, ratio of IC50 for human THP-1 cells to IC50 for Leishmania donovani MHOM/SD/1962/1S-Cl2d axenic amastigotes; assay type: toxicity, cell-based; details: read-out: Ratio IC50
L6 = experiment: Cytotoxicity against rat L6 cells after 72 hrs by Alamar blue assay; assay type: cell-based; details: L6, 72 h
[4] = Cytotoxicity against human THP1 cells after 24 hrs by Alamar blue viability assay; assay type: cell-based; details: THP-1, 24 h
Leishmania donovani [5] = experiment: Antileishmanial activity against axenic amastigote stage of Leishmania donovani MHOM/SD/1962/1S-Cl2d assessed as inhibition of parasite growth at 5 uM after 24 hrs by Alamar blue viability assay; assay type: functional; details: read-out: GI
Leishmania donovani [6] = experiment: Antileishmanial activity against axenic amastigote stage of Leishmania donovani MHOM/SD/1962/1S-Cl2d assessed as inhibition of parasite growth after 24 hrs by Alamar blue viability assay; assay type: functional, organism-based
Trypanosoma cruzi [7] = experiment: Antiparasitic activity against amastigote stage of Trypanosoma cruzi Tulahuen C2C4 expressing LacZ gene infected in rat L6 cells after 96 hrs by photometric analysis; assay type: functional, organism-based; details: Tulahuen C2C4, L6, 96 h
[8] = Selectivity index, ratio of IC50 for rat L6 cells to IC50 for amastigote stage of Trypanosoma cruzi Tulahuen C2C4 expressing LacZ gene infected in rat L6 cells; assay type: toxicity, cell-based; details: read-out: Ratio IC50
Leishmania donovani [9] = experiment: Antileishmanial activity against Leishmania donovani promastigotes infected in human THP1 cells assessed as inhibition of amastigote growth by luciferase assay; assay type: functional, organism-based; details: THP-1
Trypanosoma cruzi [10] = experiment: Potency index of ratio of Benznidazole IC50 to compound IC50 for antiparasitic activity against amastigote stage of Trypanosoma cruzi Tulahuen C2C4; assay type: functional
Trypanosoma cruzi [11] = experiment: Antiparasitic activity against epimastigote stage of Trypanosoma cruzi IRHOD/CO/2008/SN3 after 72 hrs by Neubauer haemocytometric analysis; assay type: functional, organism-based; details: IRHOD/CO/2008/SN3, 72 h
Leishmania infantum = experiment: Antileishmanial activity against promastigote stage of Leishmania infantum MCAN/ES/2001/UCM-10 after 72 hrs by Neubauer haemocytometric analysis; assay type: functional, organism-based; details: MCAN/ES/2001/UCM-10, 72 h
Leishmania braziliensis = experiment: Antileishmanial activity against promastigote stage of Leishmania braziliensis MHOM/BR/75/M2904 after 72 hrs by Neubauer haemocytometric analysis; assay type: functional; details: MHOM/BR/75/M2904, 72 h

SMILES	inhibition of growth at 50 µM (Leishmania donovani [1])	inhibition of growth at 15 µM (Leishmania donovani [2])	IC50 (L6)	IC50 (Trypanosoma cruzi [7])	selectivity ratio [8]	also measured
COC(=O)[C@H](Cc1ccccc1)NC(=O)[C@]1(C)CCC[C@]2(C)c3ccc(C(C)C)cc3CC[C@@H]12	68.6%	–	–	–	–	–
CC(C)c1ccc2c(c1)CC[C@H]1[C@](C)(C(=O)N[C@H](C(=O)O)C(C)C)CCC[C@]21C	90.6%	10.9%	–	–	–	–
COC(=O)CNC(=O)[C@]1(C)CCC[C@]2(C)c3ccc(C(C)C)cc3C(=O)C[C@@H]12	37.1%	–	–	–	–	–
COC(=O)[C@H](CC1CCCCC1)NC(=O)[C@]1(C)CCC[C@]2(C)c3ccc(C(C)C)cc3C(=O)C[C@@H]12	90.2%	76.3%	33.5 µM	4.2 µM	8	selectivity ratio [3]: 14; IC50 [4]: 62.1 µM; inhibition of growth at 5 µM (Leishmania donovani [5]): 33.3%; IC50 (Leishmania donovani [6]): 4.6 µM; IC50 (Leishmania donovani [9]): 6.6 µM
CC(C)c1ccc2c(c1)CC[C@H]1[C@](C)(C(=O)N[C@H](Cc3ccc[n+]([O-])c3)C(=O)O)CCC[C@]21C	1.9%	–	–	–	–	–
COC(=O)[C@@H](Cc1ccc(O)cc1)NC(=O)[C@]1(C)CCC[C@]2(C)c3ccc(C(C)C)cc3CC[C@@H]12	98.9%	94.7%	–	–	–	selectivity ratio [3]: 2; IC50 [4]: 21.7 µM; inhibition of growth at 5 µM (Leishmania donovani [5]): 38.8%; IC50 (Leishmania donovani [6]): 11.1 µM
COC(=O)[C@@H](Cc1c[nH]c2ccccc12)NC(=O)[C@]1(C)CCC[C@]2(C)c3ccc(C(C)C)cc3CC[C@@H]12	46.9%	–	–	–	–	–
CC(C)c1ccc2c(c1)CC[C@H]1[C@](C)(C(=O)NCC(=O)O)CCC[C@]21C	69.3%	–	–	–	–	–
CC(C)c1ccc2c(c1)CC[C@H]1[C@](C)(C(=O)O)CCC[C@]21C [DEHYDROABIETIC ACID]	91.1%	59.2%	151 µM	101 µM	1	–
CC(C)c1ccc2c(c1)CC[C@H]1[C@](C)(C(=O)N[C@H](Cc3ccccc3)C(=O)O)CCC[C@]21C	98.3%	96.8%	60.6 µM	27.7 µM	2	selectivity ratio [3]: 8; IC50 [4]: 41.4 µM; inhibition of growth at 5 µM (Leishmania donovani [5]): 54.1%; IC50 (Leishmania donovani [6]): 5.2 µM
CC(C)c1ccc2c(c1)CC[C@H]1[C@](C)(C(=O)N[C@H](Cc3ccc(O)cc3)C(=O)O)CCC[C@]21C	96.1%	9.8%	–	–	–	–
COC(=O)[C@@H](Cc1cccnc1)NC(=O)[C@]1(C)CCC[C@]2(C)c3ccc(C(C)C)cc3CC[C@@H]12	98.6%	16.5%	24.1 µM	1.4 µM	17	Ratio IC50 (Trypanosoma cruzi [10]): 1.5
COC(=O)[C@@H](Cc1ccc[n+]([O-])c1)NC(=O)[C@]1(C)CCC[C@]2(C)c3ccc(C(C)C)cc3CC[C@@H]12	27.1%	–	85.9 µM	32.7 µM	3	–
COC(=O)CNC(=O)[C@]1(C)CCC[C@]2(C)c3ccc(C(C)C)cc3CC[C@@H]12	28.7%	–	–	–	–	–
COC(=O)[C@H](CC(C)C)NC(=O)[C@]1(C)CCC[C@]2(C)c3ccc(C(C)C)cc3CC[C@@H]12	64.9%	–	–	–	–	–
CC(C)c1ccc2c(c1)CC[C@H]1[C@](C)(C(=O)N[C@H](Cc3c[nH]c4ccccc34)C(=O)O)CCC[C@]21C	98.3%	53.9%	–	–	–	–

SMILES	inhibition of growth at 50 µM (Leishmania donovani [1])	inhibition of growth at 15 µM (Leishmania donovani [2])	IC50 (L6)	IC50 (Trypanosoma cruzi [7])	selectivity ratio [8]	also measured
COC(=O)[C@@H](Cc1ccccc1)NC(=O)[C@]1(C)CCC[C@]2(C)c3ccc(C(C)C)cc3CC[C@@H]12	77.5%	51.5%	–	–	–	–
COC(=O)[C@H](CC1CCCCC1)NC(=O)[C@]1(C)CCC[C@]2(C)c3ccc(C(C)C)cc3CC[C@@H]12	43.2%	–	–	–	–	–
CC(C)c1ccc2c(c1)CC[C@H]1[C@](C)(C(=O)N[C@@H](CC3CCCCC3)C(=O)O)CCC[C@]21C	98.1%	92.2%	29.1 µM	22.8 µM	1	selectivity ratio [3]: 24; IC50 [4]: 40.5 µM; inhibition of growth at 5 µM (Leishmania donovani [5]): 63.6%; IC50 (Leishmania donovani [6]): 1.7 µM; IC50 (Leishmania donovani [9]): 5 µM
COC(=O)[C@H](CC1CCCCC1)NC(=O)[C@]1(C)CCC[C@]2(C)c3ccc(C(C)C)cc3/C(=N\O)C[C@@H]12	90.8%	85.8%	13.5 µM	5.8 µM	2	selectivity ratio [3]: 7; IC50 [4]: 37.2 µM; inhibition of growth at 5 µM (Leishmania donovani [5]): 52.9%; IC50 (Leishmania donovani [6]): 5.6 µM
COC(=O)[C@@H](NC(=O)[C@]1(C)CCC[C@]2(C)c3ccc(C(C)C)cc3CC[C@@H]12)C(C)C	57.1%	–	–	–	–	–
CC[C@H](NC(=O)[C@]1(C)CCC[C@]2(C)c3ccc(C(C)C)cc3CC[C@@H]12)C(=O)OC	57.6%	–	–	–	–	–
CC(C)c1ccc2c(c1)/C(=N\O)C[C@H]1[C@](C)(C(=O)N[C@@H](CC3CCCCC3)C(=O)O)CCC[C@]21C	97.7%	52.3%	–	–	–	–
CC(C)c1ccc2c(c1)C(=O)C[C@H]1[C@](C)(C(=O)N[C@@H](CC3CCCCC3)C(=O)O)CCC[C@]21C	99.1%	98.6%	77.2 µM	3.9 µM	20	selectivity ratio [3]: 13; IC50 [4]: 52 µM; inhibition of growth at 5 µM (Leishmania donovani [5]): 82.8%; IC50 (Leishmania donovani [6]): 4 µM; IC50 (Leishmania donovani [9]): 2.3 µM
CC[C@H](NC(=O)[C@]1(C)CCC[C@]2(C)c3ccc(C(C)C)cc3CC[C@@H]12)C(=O)O	85%	5.9%	–	–	–	–
COC(=O)[C@@H](CCSC)NC(=O)[C@]1(C)CCC[C@]2(C)c3ccc(C(C)C)cc3CC[C@@H]12	88.7%	50.8%	–	–	–	–
CC(C)c1ccc2c(c1)CC[C@H]1[C@](C)(C(=O)N[C@@H](Cc3ccccc3)C(=O)O)CCC[C@]21C	98.1%	77.6%	45.4 µM	33.1 µM	1	selectivity ratio [3]: 33; IC50 [4]: 82.2 µM; inhibition of growth at 5 µM (Leishmania donovani [5]): 53.1%; IC50 (Leishmania donovani [6]): 2.5 µM; IC50 (Leishmania donovani [9]): 9 µM
CC(C)c1ccc2c(c1)CC[C@H]1[C@](C)(C(N)=O)CCC[C@]21C	55.2%	–	–	–	–	–
CC(C)c1ccc2c(c1)CC[C@H]1[C@](C)(C(=O)N[C@H](Cc3cccnc3)C(=O)O)CCC[C@]21C	9.8%	–	174 µM	83.1 µM	2	–
CSCC[C@@H](NC(=O)[C@]1(C)CCC[C@]2(C)c3ccc(C(C)C)cc3CC[C@@H]12)C(=O)O	98%	47%	–	–	–	–
COC(=O)[C@]1(C)CCC[C@]2(C)C3=C(CC[C@@H]12)C(=O)C(C(C)C)=CC3=O	–	–	–	–	–	IC50 (Trypanosoma cruzi [11]): 14.2 µM; IC50 (Leishmania infantum): 14.2 µM; IC50 (Leishmania braziliensis): 14.2 µM
CC(C)C[C@H](NC(=O)[C@]1(C)CCC[C@]2(C)c3ccc(C(C)C)cc3CC[C@@H]12)C(=O)O	91.2%	34.8%	–	–	–	–

From ChEMBL document CHEMBL3797148, “Antiprotozoal activity of dehydroabietic acid derivatives against Leishmania donovani and Trypanosoma cruzi” (Medchemcomm, 2016)
